Measured values taken from patent publication US20230190745A1, “USE OF METABOLIC REGULATORS FOR THE TREATMENT OF COVID-19” (YISSUM RESEARCH DEVELOPMENT COMPANY OF THE HEBREW …, priority 2020, published 2023).
Read-outs that look alike come from different tables or passages of the source.

Key:
SARS-CoV-2 = assay: Viral load quantitative real-time PCR in SARS-CoV-2 infected NHBE cells under drug treatment; format: cell-based; conditions: for reduction of SARS-CoV-2 viral load: 5 days of treatment, viral RNA vs DMSO vehicle, n=3
COVID-19 patients [1] = assay: Observational comparison of representation of metabolic regulator users in hospital records versus COVID-19 cases (chi-squared / IRR, Table 3); format: in vivo, human; conditions: for representation among COVID-19 severity indicators (hospitalization, ICU admission, deaths): chi-squared test vs general hospital medical records
COVID-19 patients [2] = assay: Retrospective cohort of hospitalized COVID-19 patients taking metabolic regulators, outcomes before PSM (Table 2); format: in vivo, human; conditions: users before PSM
Description: Israeli Study Design and Participants: A retrospective, multi-center study was conducted in Hadassah and Ichilov medical centers. A total of 20,153 participants were diagnosed positive for SARS-COV-2 following WHO interim guidance (World Health Organization, 2020). Only patients hospitalized and diagnosed with COVID-19 were included. Participants with incomplete electronic medical records, aged less than 18, with pregnancy or severe medical conditions, including acute lethal organ injury (i.e., acute coronary syndrome, acute stroke, and severe acute pancreatitis) were excluded. The flowchart for patient inclusion is illustrated in FIG. 4J. Participants were admitted between Mar. 1, 2020, and Aug. 31, 2020 to either the Hadassah Medical Center in Jerusalem or the Tel Aviv Sourasky Medical Center. The final date of the follow up was Sep. 28, 2020. The study protocols were approved by the institutional ethics committee. Patient informed consent was waived by each ethics committee. Demographic and clinical characteristics, vital signs, laboratory tests, radiological reports, therapeutic interventions, and outcome data were extracted from electronic medical records using a standardized data collection. The laboratory data included a routine blood test, serum biochemical markers reflecting liver injury, kidney injury, and cardiac injury, lipid profile, IL-6, CRP, procalcitonin, and D-dimer were collected during hospitalization. In-hospital medication and life support intervention included the classification of the drugs, the dosage, the course of treatment, and using respiratory support were also extracted from medical records.

COVID-19 patients [3] = assay: Propensity score-matched analysis of hospitalized COVID-19 patients, outcomes after PSM (Table 5); format: in vivo, human
COVID-19 patients [4] = assay: Secondary outcomes and organ failure, incidence rate ratios and Cox hazard ratios (Table 4); format: in vivo, human
Excerpt: Any death that occurred was documented.

COVID-19 patients [5] = conditions: 21-day hospitalization, vs PSM-matched controls
Description: In clinical data, continuous variables with non-normal distributions were expressed as median [IQR]. Categorical variables were expressed as number and percentage (%). […] Comparisons between groups were performed with Mann-Whitney U test for nonparametric variables and Fisher's exact test or χ2 test for categorical variables. Person-time data (Incidence) of two groups with different exposures may be expressed as a difference between incidence rates or as a ratio of incidence rates (IRRs). The IRRs of endpoint outcomes were calculated to estimate the incidence difference in absolute change in the incidence of two comparison groups. The cumulative rates of death were compared using the Kaplan-Meier curves. Dynamic changes of inflammatory factors tracking from day 0 to day 28 after admission were depicted using the Lowess model. A two-side a less than 0.05 was considered to define statistical significance. Data were analyzed in R-3.6.3 (R Foundation for Statistical Computing, Vienna, Austria) and SPSS Statistics (version 23.0, IBM, Armonk, N.Y., USA).
To study the effects of metabolic regulators on COVID-19 progression the dynamic changes in circulating C-reactive protein (CRP), neutrophils, and lymphocytes markers of SARS-CoV-2 induced immunoinflammatory response were analyzed.

[6] = tested on: SARS-CoV-2 infected primary lung cells; format: cell-based, human
[7] = tested on: SARS-CoV-2 infected lung cells; assay: Cell viability (Hoechst staining) of SARS-CoV-2 infected lung cells exposed to drugs; format: cell-based, human; conditions: 5 days exposure
Description: Drug Treatments: Approximately 5×10^5 NHBE cells were infected with SARS-CoV-2 at a MOI of 2 in bronchial epithelial growth media. […] After 24 h, the media was collected and changed to bronchial epithelial growth media with the respective drug at the concentration listed above. Then, every 48 hours media was collected and replenished. The media was stored at −80° C. immediately after removal. Culture viability was assessed at the end the experiment using Hoechst staining.

[8] = tested on: SARS-CoV-2 infected lung cells; format: cell-based; conditions: 5 days exposure, vs DMSO-treated and mock-infected controls
[9] = physiological concentrations (Cmax): 20 μM rosiglitazone, 5 μM empagliflozin, 1 mM metformin
[10] = vs share in 249,939 patient records 2015-2020
[11] = vs PSM-matched non-treatment group
[12] = adjusted hazard ratio, mixed-effect Cox model, treatment versus non-treatment group
[13] = incidence rate in treatment group (first figure of 'x versus y')
[14] = incidence rate ratio, treatment versus non-treatment group

CN(C)C(=N)N=C(N)N [metformin]
effect on SARS-CoV-2 infected primary cells (FIG. 4C-G) (SARS-CoV-2; [9]): no effect | representation among COVID-19 severity indicators (hospitalization, ICU admission, deaths) (COVID-19 patients [1]): significant over-representation | COVID-19 Deceased, number of patients taking the drug (COVID-19 patients [1]; of 100 COVID-19 deceased): 13 | COVID-19 Deceased, share of patients taking the drug (COVID-19 patients [1]; of 100 COVID-19 deceased): 13.00% | COVID-19 ICU, number of patients taking the drug (COVID-19 patients [1]; of 312 COVID-19 ICU patients): 42 | COVID-19 ICU, share of patients taking the drug (COVID-19 patients [1]; of 312 COVID-19 ICU patients): 13.46% | COVID-19 Hospitalization, share of patients taking the drug (COVID-19 patients [1]; of 1,531 hospitalized COVID-19 cases): 8.82% | COVID-19 Hospitalization, number of patients taking the drug (COVID-19 patients [1]; of 1,531 hospitalized COVID-19 cases, adults over 40): 135 | IRR, COVID-19 Deceased (COVID-19 patients [1]; [10]): 1.85 | IRR, COVID-19 Hospitalization (COVID-19 patients [1]; [10]): 1.26 | Follow-up days, median (COVID-19 patients [2]): 5.0 days | High Flow Oxygen, % (COVID-19 patients [2]): (19%) | ICU admission, % (COVID-19 patients [2]): (30.7%) | Mechanically Ventilated/ECMO, % (COVID-19 patients [2]): (12.44%) | Non-invasive positive pressure ventilation, % (COVID-19 patients [2]): (7.3%) | Oxygen Supplementation, % (COVID-19 patients [2]): (38%) | Follow-up days, median (IQR) (COVID-19 patients [3]; median, drug users after PSM): 4.8 days | High Flow Oxygen, % (COVID-19 patients [3]; share of drug users after PSM): (15.6%) | ICU admission, % (COVID-19 patients [3]; share of drug users after PSM): (16.3%) | Mechanically Ventilated/ECMO, % (COVID-19 patients [3]; share of drug users after PSM): (10.4%) | Non-invasive positive pressure ventilation, % (COVID-19 patients [3]; share of drug users after PSM): (2.2%) | Oxygen Supplementation, % (COVID-19 patients [3]; share of drug users after PSM): (42.2%) | ICU admission rates (COVID-19 patients [3]; [11]): higher ICU admission rate and respiratory interventions | length of hospitalization (COVID-19 patients [3]; [11]): longer hospitalizations | mortality rates (COVID-19 patients [3]; [11]): higher mortality rates | respiratory intervention rates (COVID-19 patients [3]; [11]): higher ICU admission rate and respiratory interventions | aHR, ICU admission (COVID-19 patients [4]; [12]): 1.1 | aHR, acute cardiac injury (COVID-19 patients [4]; [12]): 1.1 | aHR, acute kidney injury (COVID-19 patients [4]; [12]): 0.48 | aHR, acute liver injury (COVID-19 patients [4]; [12]): 0.76 | aHR, invasive mechanical ventilation (COVID-19 patients [4]; [12]): 1.3 | aHR, septic shock (COVID-19 patients [4]; [12]): 1.6 | IR, ICU admission (COVID-19 patients [4]; [13]): 0.37 versus 0.31 100-person-day | IR, acute cardiac injury (COVID-19 patients [4]; [13]): 0.25 versus 0.36 100-person-day | IR, acute kidney injury (COVID-19 patients [4]; [13]): 0.18 versus 0.37 100-person-day | IR, acute liver injury (COVID-19 patients [4]; [13]): 0.05 versus 0.11 100-person-day | IR, septic shock (COVID-19 patients [4]; [13]): 0.16 versus 0.12 100-person-day | IR, invasive mechanical ventilation (COVID-19 patients [4]; incidence rate in treatment group (first figure of 'x versus y'; second is the non-treatment group)): 0.15 versus 0.12 100-person-day | IRR, ICU admission (COVID-19 patients [4]; [14]): 1.2 | IRR, acute cardiac injury (COVID-19 patients [4]; [14]): 0.69 | IRR, acute kidney injury (COVID-19 patients [4]; [14]): 0.47 | IRR, acute liver injury (COVID-19 patients [4]; [14]): 0.43 | IRR, invasive mechanical ventilation (COVID-19 patients [4]; [14]): 1.3 | IRR, septic shock (COVID-19 patients [4]; [14]): 1.3 | circulating CRP levels (inflammation) (COVID-19 patients [5]): no significant differences | lymphocyte counts (COVID-19 patients [5]): lower lymphocyte count during the recovery period | neutrophil counts (COVID-19 patients [5]): lower initial neutrophil counts but relativity similar response to their PSM-matched controls

CC(C)(Oc1ccc(C2CC2(Cl)Cl)cc1)C(=O)O (stereo not shown) [ciprofibrate]
representation among COVID-19 severity indicators (hospitalization, ICU admission, deaths) (COVID-19 patients [1]): underrepresented in ICU admissions and deaths

CC(C)OC(=O)C(C)(C)Oc1ccc(C(=O)c2ccc(Cl)cc2)cc1 [fenofibrate]
reduction of SARS-CoV-2 viral load (SARS-CoV-2; 20 μM fenofibrate): 2 logs | reduction of lactate to glucose ratio ([6]; SARS-CoV-2 infected primary lung cells, n=3, p<0.01): 60% | cell viability [7]: without affecting cell viability

CCCc1nc2c(C)cc(-c3nc4ccccc4n3C)cc2n1Cc1ccc(-c2ccccc2C(=O)O)cc1 [telmisartan]
representation among COVID-19 severity indicators (hospitalization, ICU admission, deaths) (COVID-19 patients [1]): over-represented in ICU admission and deaths

OC[C@H]1O[C@@H](c2ccc(Cl)c(Cc3ccc(O[C@H]4CCOC4)cc3)c2)[C@H](O)[C@@H](O)[C@@H]1O [empagliflozin]
effect on SARS-CoV-2 infected primary cells (FIG. 4C-G) (SARS-CoV-2; [9]): no effect

Clc1ccc(C(OCCN2CCCCC2)c2ccccc2)cc1 (stereo not shown) [cloperastine]
reduction of SARS-CoV-2 viral load (SARS-CoV-2; 10 μM): 3 fold | phospholipid accumulation / lipid content [8]: did not result in a reduction of lipid content | glycolytic index / increase in glycolysis ([6]; Cmax concentration, infected primary cells): did not result in a reduction of lipid content or change in the glycolytic index | cell viability [7]: without affecting cell viability

CN(CCOc1ccc(CC2SC(=O)NC2=O)cc1)c1ccccn1 (stereo not shown) [Rosiglitazone]
effect on SARS-CoV-2 infected primary cells (FIG. 4C-G) (SARS-CoV-2): no effect
